A short description of data set [1]: In vivo biodistribution studies (Example 5). To be noted: i.v., 2-60 min. Details: species or system C3H/hej mice. On the procedure: The stability of novel compound [^18F]11 and known compound [^125I]14 in plasma and liver was measured over time following administration in mice. [^18F]11 was injected intravenously into tumor-bearing mice and its tissue distribution was measured in selected tissues at 2, 15 and 60 min after injection. [^125I]14 was injected intravenously into non-tumour bearing mice and its tissue distribution was measured at selected time points from 2 to 60 minutes after injection. Furthermore, the in vivo metabolic stability of the radiotracer was determined from plasma and liver samples and, for [^18F]11, in urine samples.
The radiation-induced murine fibrosarcoma (RIF-1) tumour cells^20 were maintained in RPMI 1640 medium (Invitrogen Ltd, Paisley, UK) supplemented with 10% fetal calf serum (BioWhittaker Europe Ltd, Verviers, Belgium), 2 mM L-glutamine, 100 U/mL penicillin, 100 μg/mL streptomycin and 0.25 μg/mL fungizone (Gibco, UK) at 37° C. in a humidified incubator with 5% CO2. All animal work was done by licensed investigators in accordance with the United Kingdom's “Guidance on the Operation of Animals (Scientific Procedures) Act 1986” (HMSO, London, United Kingdom, 1990) and in full compliance with government regulations and guidelines on the welfare of animals in experimental neoplasia^21. Tumors were established in mice by subcutaneous injection of 5×10^5 cells on the back of male C3H/hej mice (Harlan, Bicester, Oxfordshire, UK). Tumour growth was monitored every two days using electronic callipers, and tumor volume estimated using the equation (π/6)×L×W×D (L=length, W=width and D=depth). Animals were selected for biodistribution studies of [^18F]11 when the tumors reached ˜100-150 mm^3; biodistribution of [^125I]14 was done in non-tumor-bearing mice.
Mice were injected intravenously via the lateral vein with 0.08-0.13 mL of radioactivity (˜0.37 MBq of [^125I]14 or 3.7 MBq of [^18F]11) dissolved in phosphate buffered saline. At selected times after injection (2-60 min) mice were sacrificed by exsanguination via cardiac puncture under general anesthesia (isofluorane inhalation). Aliquots of heparinised blood were rapidly centrifuged (2000 g for 5 minutes) to obtain plasma. The radioactivity contained in tissues was determined by gamma-counting on a Cobra II Auto-Gamma counter (Packard Instruments, Meriden, Conn., USA) and expressed as a percentage of injected dose per gram of tissue (% ID/g). A minimum of three mice was used for each time point. All animals were treatment-naïve.

For the next data set, the system named is RIF-1 xenograft. In words: In vivo [^18F]11 biodistribution and PET imaging, RIF-1 xenograft. Details: species or system mice. To be noted: for 60 min biodistribution, Bone / 60 min biodistribution, Kidney / 60 min biodistribution, L. Intestine / 60 min biodistribution, Liver / 60 min biodistribution, Lung / 60 min biodistribution, Muscle / 60 min biodistribution, S. Intestine / 60 min biodistribution, Spleen / 60 min biodistribution, Tumour: RIF-1. The text has this:
In vivo tumour models were established by subcutaneous injection of PEO1/4 (10×10^6 cells, with v/v matrigel, BD Biosciences, Oxford, UK), RIF-1 (5×10^5 cells) and LNM35 (1×10^6 cells) on the back of 6-8 weeks old female nu/nu-BALB/c or male C3H/hej mice (Harlan, Bicester, Oxfordshire, UK). Tumour growth was monitored every two days using electronic callipers, and tumour volume estimated using (π/6)×L×W×D (L=length, W=width and D=depth). All animal work was done by licensed investigators in accordance with the United Kingdom's “Guidance on the Operation of Animals (Scientific Procedures) Act 1986” (HMSO, London, United Kingdom, 1990) and in full compliance with government regulations and guidelines on the welfare of animals in experimental neoplasia.
For biodistribution studies, tumour-bearing mice were treated with 10 mg/kg cisplatin or vehicle for 24 h, anesthetized with isofluorane/O2/N2O and injected i.v. in the lateral tail vein with ˜100 μCi [^18F]11 for the indicated time. The different tissues were removed, weighted and placed in counting tubes for immediate Fluorine-18 radioactivity counting.
Tumour-bearing mice treated with Cisplatin (10 mg/kg for 24 h) or vehicle were scanned on a dedicated small animal PET scanner (quad-HIDAC; Oxford Positron Systems, Weston-on-the-Green, United Kingdom). Anesthetized animals were placed within a thermostatically controlled bed and positioned prone within the scanner. The bed was calibrated to provide a mouse rectal temperature of ˜37° C. A bolus injection of [^18F]11 (˜100 μCi) was given intravenously (i.v.) via the tail vein cannula and scanning commenced. Dynamic emission scans were acquired in list-mode format over 60 minutes. The acquired data were then sorted into 0.5-mm sinogram bins and 19 time frames (0.5×0.5×0.5 mm voxels; 4×15, 4×60, and 11×300 seconds) for image reconstruction, which was done by filtered back projection using a two-dimensional Hamming filter (cutoff 0.6). The image data-sets obtained were transferred to a SUN workstation (Ultra 10; SUN Microsystems, Santa Clara, Calif.) and visualized using the Analyze software (version 6.0; Biomedical Imaging Resource, Mayo Clinic, Rochester, Minn.). Cumulative images of the dynamic data composed of 0 to 1 minute after injection and 30 to 60 minutes after injection were used for visualization of radiotracer uptake and to define the regions of interest (ROI). The count densities were averaged for each ROI at each of the 19 time points to obtain a time versus radioactivity curve (TAC) for the ROIs. Tumour TAC was normalized to that of heart at each of the time points to obtain the normalized uptake value (NUV). The [^18F]9 data from […] were used as internal input function for normalizing tumour data. […] FRT is a useful variable in that it indicates the proportion of radiotracer delivered to the tumour that is retained. It therefore normalizes tumor [^18F]9 uptake to delivery.
RIF-1 tumor was treated with vehicle (50% DMSO) or CDDP (10 mg/kg single dose). The [^18F]-derived radioactivity levels at 60 min post radiotracer injection were analysed and expressed as a ratio to that of blood. […] 1.5-fold increase in uptake of [^18F]11 for treated mice over vehicle treated mice. Data are mean±SEM and n=8 mice per group.

SMILES strings stand for the structures.

`O=C1C(=O)N(Cc2cn(CC[18F])nn2)c2ccc(S(=O)(=O)N3CCC[C@H]3COc3ccc(F)cc3F)cc21` [[^18F]11, (S)-1-((1-(2-Fluoroethyl)-1H-[1,2,3]-triazol-4-yl)methyl)-5-(2(2,4-difluorophenoxymethyl)-pyrrolidine-1-sulfonyl)isatin]: in data set [1] (RIF-1 tumor-bearing mice), the Bone uptake result is reported as “low”; the “uptake in untreated tumors, heart and brain” value is “low”. In addition, the “tissue distribution and elimination” value in data set [1] (mice) is “distributed rapidly to tissues and was also rapidly eliminated”. In addition, in the data set with RIF-1 xenograft (CDDP treated), the “60 min biodistribution, Bone” value is reported as 1.78 ± 1.72; the “60 min biodistribution, Kidney” value was 5.50 ± 2.59; the “60 min biodistribution, L. Intestine” value turned out to be 2.88 ± 1.52; the “60 min biodistribution, Liver” value is 10.58 ± 4.64. Besides, in the data set on RIF-1 xenograft (CDDP treated), the “60 min biodistribution, Lung” value came to 3.23 ± 0.43; the “60 min biodistribution, Muscle” value is recorded as 1.09 ± 0.54; the “60 min biodistribution, S. Intestine” value is on record as 11.08 ± 6.00; the “60 min biodistribution, Spleen” value is on record as 1.85 ± 0.76. Also, the “60 min biodistribution, Tumour” value in the data set on RIF-1 xenograft (CDDP treated) stood at 1.31 ± 1.04. In the data set with RIF-1 xenograft (Control), the “60 min biodistribution, Bone” value is reported as 1.06 ± 0.49; the “60 min biodistribution, Kidney” value turned out to be 8.49 ± 2.00; the “60 min biodistribution, L. Intestine” value amounted to 2.66 ± 0.67; the “60 min biodistribution, Liver” value turned out to be 11.36 ± 2.39. Besides, in the data set on RIF-1 xenograft (Control), the “60 min biodistribution, Lung” value was 4.47 ± 1.00; the “60 min biodistribution, Muscle” value stood at 1.76 ± 1.33; the “60 min biodistribution, S. Intestine” value was 14.93 ± 12.68; the “60 min biodistribution, Spleen” value came to 1.85 ± 0.19. The “60 min biodistribution, Tumour” value in the data set on RIF-1 xenograft (Control) is on record as 0.96 ± 0.10. In addition, the “PET image: uptake in the tumour” value in the data set with RIF-1 xenograft (CDDP-treated mouse, RIF-1 xenograft, 30-60 min) was “significant uptake”. Besides, in the data set with RIF-1 xenograft (RIF-1 tumour, CDDP 10 mg/kg single dose, 60 min post injection), the “increase in tumour uptake (ratio to blood), treated over vehicle treated mice” value is recorded as around 1.5 fold.

These data come from patent US8961930B2, “Isatin derivatives for use as in vivo imaging agents” (Imperial Innovations Limited, priority 2008, dated 2015).
